Results published in US20230077362A1 (CORTEVA AGRISCIENCE LLC, priority 2019, published 2023).

What was measured:
[1] = system: Beet Armyworm (Spodoptera exigua) ("BAW"), second instar larvae; assay: Bioassay on beet armyworm (BAW), 128-well diet tray assay; type: in vivo; conditions: for BAW rating: Table ABC, species BAW, C = not tested, D = no activity noticed; for pest or weed control at 50 µg/cm2: Spodoptera exigua, read-out: BAW rating
In short: (§1)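 Covered trays were held at 25° C. under a 14:10 light-dark cycle for five to seven days. Percent mortality was then scored in each well, and activity across eight wells was averaged.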

[2] = system: Cabbage Looper (Trichoplusia ni) ("CL"), second instar larvae; assay: Bioassay on cabbage looper (CL), 128-well diet tray assay; type: in vivo; conditions: for CL rating: Table ABC, species CL, C = not tested, D = no activity noticed; for pest or weed control at 50 µg/cm2: Trichoplusia ni, read-out: CL rating
In short: as §1

Row | SMILES | BAW rating [1] | CL rating [2] | pest or weed control at 50 µg/cm2 [1] [%] | pest or weed control at 50 µg/cm2 [2] [%]
1 | CCCOCc1ccc(C)cc1N1C(=O)CS/C1=N\C(=O)Nc1ccc(-c2ncn(-c3ccc(S(F)(F)(F)(F)F)cc3)n2)cc1F [Compound J544] | A (50-100) | A (50-100) | – | –
2 | CCCOCc1ccc(C)cc1N1C(=O)CS/C1=N\C(=O)Nc1ccc(-c2ncn(-c3ccc(OC(F)(F)F)cc3)n2)cc1C [Compound J546] | A (50-100) | A (50-100) | – | –
3 | Cc1ccc(COCCC(F)(F)F)c(N2C(=O)CS/C2=N\C(=O)Nc2ccc(-c3ncn(-c4ccc(C(F)(F)F)cc4)n3)cc2F)c1 [Compound J547] | A (50-100) | A (50-100) | – | –
4 | CCOCc1ccc(C)cc1N1C(=O)CS/C1=N\C(=O)Nc1ccc(-c2ncn(-c3ccc(S(F)(F)(F)(F)F)cc3)n2)cc1C [Compound J548] | A (50-100) | A (50-100) | – | –
5 | Cc1ccc(COCC(F)(F)F)c(N2C(=O)CS/C2=N\C(=O)Nc2ccc(-c3ncn(-c4ccc(S(F)(F)(F)(F)F)cc4)n3)cc2C)c1 [Compound J549] | A (50-100) | A (50-100) | – | –
6 | Cc1ccc(COCC(Cl)(Cl)Cl)c(N2C(=O)CS/C2=N\C(=O)Nc2ccc(-c3ncn(-c4ccc(C(F)(F)F)cc4)n3)cc2F)c1 [Compound J550] | A (50-100) | A (50-100) | – | –
7 | Cc1ccc(COCCF)c(N2C(=O)CS/C2=N\C(=O)Nc2ccc(-c3ncn(-c4ccc(OC(F)(F)F)cc4)n3)cc2F)c1 [Compound J551] | A (50-100) | A (50-100) | – | –
8 | Cc1ccc(COCCF)c(N2C(=O)CS/C2=N\C(=O)Nc2ccc(-c3ncn(-c4ccc(S(F)(F)(F)(F)F)cc4)n3)cc2F)c1 [Compound J552] | – | – | 50 to 100 | 50 to 100
9 | Cc1ccc(COCC(Cl)Cl)c(N2C(=O)CS/C2=N\C(=O)Nc2ccc(-c3ncn(-c4ccc(OC(F)(F)F)cc4)n3)cc2F)c1 [Compound J553] | A (50-100) | A (50-100) | – | –
10 | Cc1ccc(COCC(Cl)Cl)c(N2C(=O)CS/C2=N\C(=O)Nc2ccc(-c3ncn(-c4ccc(S(F)(F)(F)(F)F)cc4)n3)cc2F)c1 [Compound J554] | A (50-100) | A (50-100) | – | –
11 | Cc1ccc(COCC(Cl)Cl)c(N2C(=O)CS/C2=N\C(=O)Nc2ccc(-c3ncn(-c4ccc(OC(F)(F)F)cc4)n3)cc2C)c1 [Compound J555] | – | – | 50 to 100 | 50 to 100
12 | Cc1ccc(COCC(Cl)Cl)c(N2C(=O)CS/C2=N\C(=O)Nc2ccc(-c3ncn(-c4ccc(S(F)(F)(F)(F)F)cc4)n3)cc2C)c1 [Compound J556] | A (50-100) | A (50-100) | – | –
13 | Cc1ccc(COCCF)c(N2C(=O)CS/C2=N\C(=O)Nc2ccc(-c3ncn(-c4ccc(S(F)(F)(F)(F)F)cc4)n3)cc2C)c1 [Compound J557] | A (50-100) | A (50-100) | – | –
14 | Cc1ccc(COCCF)c(N2C(=O)CS/C2=N\C(=O)Nc2ccc(-c3ncn(-c4ccc(OC(F)(F)F)cc4)n3)cc2C)c1 [Compound J558] | A (50-100) | A (50-100) | – | –
15 | Cc1ccc(COCC(Cl)Cl)c(N2C(=O)CS/C2=N\C(=O)Nc2ccc(-c3ncn(-c4ccc(C(F)(F)F)cc4)n3)cc2F)c1 [Compound J559] | A (50-100) | A (50-100) | – | –
16 | COc1cc(COCC(F)(F)F)c(N2C(=O)CS/C2=N\C(=O)Nc2ccc(-c3ncn(-c4ccc(OC(F)(F)F)cc4)n3)cc2F)cc1OC [Compound J560] | A (50-100) | A (50-100) | – | –
17 | COc1cc(COCC(F)(F)F)c(N2C(=O)CS/C2=N\C(=O)Nc2ccc(-c3ncn(-c4ccc(S(F)(F)(F)(F)F)cc4)n3)cc2F)cc1OC [Compound J561] | A (50-100) | A (50-100) | – | –
18 | Cc1ccc(Cc2ccccc2)c(N2C(=O)CS/C2=N\C(=O)Nc2ccc(-c3ncn(-c4ccc(C(F)(F)F)cc4)n3)cc2F)c1 [Compound J562, (Z)-1-(3-(2-Benzyl-5-methylphenyl)-4-oxothiazolidin-2-ylidene)-3-(2-fluoro-4-(1-(4-(trifluoromethyl)phenyl)-1H-1,2,4-triazol-3-yl)phenyl)urea] | – | – | 50 to 100 | 50 to 100

Row | SMILES | BAW rating [1] | CL rating [2] | pest or weed control at 50 µg/cm2 [1] [%] | pest or weed control at 50 µg/cm2 [2] [%]
19 | Cc1ccc(Cc2ccccc2)c(N2C(=O)CS/C2=N\C(=O)Nc2ccc(-c3ncn(-c4ccc(S(F)(F)(F)(F)F)cc4)n3)cc2F)c1 [Compound J563, (Z)-1-(3-(2-Benzyl-5-methylphenyl)-4-oxothiazolidin-2-ylidene)-3-(2-fluoro-4-(1-(4-(pentafluoro-λ^6-sulfaneyl)phenyl)-1H-1,2,4-triazol-3-yl)phenyl)urea] | – | – | 50 to 100 | 50 to 100
20 | COc1ccc(COCC(F)(F)F)c(N2C(=O)CS/C2=N\C(=O)Nc2ccc(-c3ncn(-c4ccc(OC(F)(F)F)cc4)n3)cc2F)c1 [Compound J564] | A (50-100) | A (50-100) | – | –
21 | COc1ccc(COCC(F)(F)F)c(N2C(=O)CS/C2=N\C(=O)Nc2ccc(-c3ncn(-c4ccc(S(F)(F)(F)(F)F)cc4)n3)cc2F)c1 [Compound J565] | A (50-100) | A (50-100) | – | –
22 | Cc1cccc(N2C(=O)CS/C2=N\C(=O)Nc2ccc(-c3ncn(-c4ccc(OC(F)(F)F)cc4)n3)cc2F)c1COCC(F)(F)F [Compound J566] | A (50-100) | A (50-100) | – | –
23 | Cc1cccc(N2C(=O)CS/C2=N\C(=O)Nc2ccc(-c3ncn(-c4ccc(S(F)(F)(F)(F)F)cc4)n3)cc2F)c1COCC(F)(F)F [Compound J567] | A (50-100) | A (50-100) | – | –
24 | Cc1ccc(COCc2cccc(F)c2)c(N2C(=O)CS/C2=N\C(=O)Nc2ccc(-c3ncn(-c4ccc(OC(F)(F)F)cc4)n3)cc2F)c1 [Compound J568, (Z)-1-(2-fluoro-4-(1-(4-(trifluoromethoxy)phenyl)-1H-1,2,4-triazol-3-yl)phenyl)-3-(3-(2-(((3-fluorobenzyl)oxy)methyl)-5-methylphenyl)-4-oxothiazolidin-2-ylidene)urea] | – | – | 50 to 100 | 50 to 100
25 | Cc1ccc(COCC(F)(F)F)c(N2C(=O)CS/C2=N\C(=O)Nc2ccc(-c3ncn(-c4ccc(S(F)(F)(F)(F)F)cc4)n3)cc2C#N)c1 [Compound J569, (Z)-1-(2-Cyano-4-(1-(4-(pentafluoro-λ^6-sulfaneyl)phenyl)-1H-1,2,4-triazol-3-yl)phenyl)-3-(3-(5-methyl-2-((2,2,2-trifluoroethoxy)methyl)phenyl)-4-oxothiazolidin-2-ylidene)urea] | – | – | 50 to 100 | 50 to 100
26 | Cc1ccc(COCc2ccccc2)c(N2C(=O)CS/C2=N\C(=O)Nc2ccc(-c3ncn(-c4ccc(OC(F)(F)F)cc4)n3)cc2F)c1 [Compound J571, (Z)-1-(3-(2-((Benzyloxy)methyl)-5-methylphenyl)-4-oxothiazolidin-2-ylidene)-3-(2-fluoro-4-(1-(4-(trifluoromethoxy)phenyl)-1H-1,2,4-triazol-3-yl)phenyl)urea] | – | – | 50 to 100 | 50 to 100
27 | Cc1cc(-c2ncn(-c3ccc(OC(F)(F)F)cc3)n2)ccc1NC(=O)/N=C1\SCC(=O)N1c1cccc(C)c1COCC(F)(F)F [Compound J576] | A (50-100) | A (50-100) | – | –
28 | COc1ccc(COCC(F)(F)F)c(N2C(=O)CS/C2=N\C(=O)Nc2ccc(-c3ncn(-c4ccc(S(F)(F)(F)(F)F)cc4)n3)cc2C)c1 [Compound J577] | A (50-100) | A (50-100) | – | –
29 | Cc1cc(-c2ncn(-c3ccc(S(F)(F)(F)(F)F)cc3)n2)ccc1NC(=O)/N=C1\SCC(=O)N1c1cccc(C)c1COCC(F)(F)F [Compound J578] | A (50-100) | A (50-100) | – | –
30 | Cc1cc(-c2ncn(-c3ccc(C(F)(F)F)cc3)n2)ccc1NC(=O)/N=C1\SCC(=O)N1c1cccc(C)c1COCC(F)(F)F [Compound J579] | A (50-100) | A (50-100) | – | –
31 | COc1ccc(COCC(F)(F)F)c(N2C(=O)CS/C2=N\C(=O)Nc2ccc(-c3ncn(-c4ccc(C(F)(F)F)cc4)n3)cc2C)c1 [Compound J580] | A (50-100) | A (50-100) | – | –
32 | COc1ccc(COCC(F)(F)F)c(N2C(=O)CS/C2=N\C(=O)Nc2ccc(-c3ncn(-c4ccc(C(F)(F)F)cc4)n3)cc2F)c1 [Compound J581] | A (50-100) | A (50-100) | – | –
33 | CCOCc1ccc(C)cc1N1C(=O)CS/C1=N\C(=O)Nc1ccc(-c2ncn(-c3ccc(S(F)(F)(F)(F)F)cc3)n2)cc1C#N [Compound J582] | – | – | 50 to 100 | 50 to 100
34 | CCCc1ccc(C)cc1N1C(=O)CS/C1=N\C(=O)Nc1ccc(-c2ncn(-c3ccc(S(F)(F)(F)(F)F)cc3)n2)cc1C#N [Compound J583, (Z)-1-(2-Cyano-4-(1-(4-(pentafluoro-λ^6-sulfaneyl)phenyl)-1H-1,2,4-triazol-3-yl)phenyl)-3-(3-(5-methyl-2-propylphenyl)-4-oxothiazolidin-2-ylidene)urea] | – | – | 50 to 100 | 50 to 100
35 | Cc1ccc(OCCC(F)(F)F)c(N2C(=O)CS/C2=N\C(=O)Nc2ccc(-c3ncn(-c4ccc(S(F)(F)(F)(F)F)cc4)n3)cc2C#N)c1 [Compound J584, (Z)-1-(2-Cyano-4-(1-(4-(pentafluoro-λ^6-sulfaneyl)phenyl)-1H-1,2,4-triazol-3-yl)phenyl)-3-(3-(5-methyl-2-(3,3,3-trifluoropropoxy)phenyl)-4-oxothiazolidin-2-ylidene)urea] | – | – | 50 to 100 | 50 to 100
36 | CC(C)c1ccc(N(C)C)cc1N1C(=O)CS/C1=N\C(=O)Nc1ccc(-c2ncn(-c3ccc(S(F)(F)(F)(F)F)cc3)n2)cc1C#N [Compound J585] | A (50-100) | A (50-100) | – | –
